Results from US9051456B2, “Agent for drug clearance and accelerator for drug clearance” (SEIKAGAKU CORPORATION, priority 2005, dated 2015).

Assay: Elimination of FP from inside of the oral cavity by gargling/rinsing (Tests 1 to 6), FP in spat-out liquids measured by HPLC
Type: in vivo, human (healthy adult volunteers)
Conditions: conclusion from Tests 1 to 6
Description: Healthy 5 adult volunteers were selected. In this connection, these volunteers received sufficient explanation from a doctor based on a descriptive document, and after understanding the explanation, submitted a document on their own judgment stating that they approved the participation in the test.
In this connection, application of FP was carried out by directly applying the FP (dry powder) took out on powder papers. Also, the subjects were given attention not to inhale the FP applied into the oral cavity from the bronchus to the lungs.
Test 1: After rinsing inside of the oral cavity, inside of the oral cavity was dried by blowing air for 30 seconds with a dryer, and then FP (100 μg) was sparged to the oral cavity. Thereafter, rinsing of the mouth with looking upward (gargling) was carried out for 5 seconds and then rinsing of the mouth facing front (rinsing) was carried out for 5 seconds (these are regarded as once), respectively using 20 ml of purified water, which was repeated 5 times. […]
In each test, the liquids spat out after gargling and rinsing by each subject were recovered, and FP concentrations in said liquids were respectively measured. […]
Based on the measured FP concentrations, amounts of FP eliminated from inside of the oral cavity were calculated, and mean value and standard deviation (SD) in each test were calculated. […]

hyaluronic acid [HA]
overall effect on elimination of drugs and acceleration of elimination: markedly effective
